# Measurements: patent US20110053773A1, “METHODS OF IMPROVING NUTRITIONAL VALUE OF PLANTS” (UNIVERSITY OF TENNESSEE RESEARCH FOUNDATION, priority 2009, published 2011)
# Columns and labels:
# [1] = tested on: sweet corn cultivars 'Merit', 'Temptation', 'Incredible'; test: Kernel carotenoids of sweet corn after mesotrione and atrazine (Example 3); type: in vivo; design: Kernel carotenoids: Lutein / Kernel carotenoids: Zeaxanthin: unit not given here; conditions: mesotrione 105, atrazine 560 g ai/ha
# Method: Studies were conducted in a field in Knoxville, Tenn. to ascertain the growth, stress tolerance and nutritional quality differences following postemergence applications of herbicides mesotrione and atrazine, alone and in mixtures together, on the young sweet corn cultivars: ‘Merit’ (yellow-kernel sensitive genotype), ‘Temptation’ (bicolor tolerant genotype), and ‘Incredible’ (yellow-kernel moderately sensitive genotype).
# Herbicide treatments were applied as follows: 1) untreated control; 2) mesotrione (meso) at 105 g ai/ha EPOST; 3) mesotrione at 105+atrazine at 560 g ai/ha EPOST; 4) atrazine at 560 g ai/ha EPOST; 5) mesotrione at 105 g ai/ha LPOST; 6) mesotrione at 105+atrazine at 560 g ai/ha LPOST; and 7) atrazine at 560 g ai/ha LPOST. Visual ratings of plant growth were taken during season, and kernels for carotenoids were measured at harvest.
# [2] = tested on: sweet corn variety 'Incredible'; test: Sugar and key antioxidant content of sweet corn (Example 1, Table 15); type: in vivo, Zea mays var. rugosa; conditions: rates g ai/ha: Nicosulfuron 35, Mesotrione 105, Topramezone 18, Isoxadifen-ethyl 13, all incl. treated check with atrazine 560 g ai/ha + 1% v/v crop oil concentrate
# Text: Herbicide treatments were applied in a water carrier at 23 gallons of solution per acre on a field site near Knoxville, Tenn. and Painter, Va. […] All treatments included a PRE application of atrazine plus metolachlor in order to maintain weed free conditions. In addition, all POST treatments (including the treated check) included atrazine at 560 g ai/ha and crop oil concentrate at 1% v/v. […] Sweet corn was harvested from the center two rows of each four row plot and weighed in the husk.
# [3] = 'Incredible' moderately sensitive genotype, EPOST
# [4] = 'Incredible' moderately sensitive genotype, LPOST
# [5] = 'Merit' sensitive genotype, EPOST
# [6] = 'Merit' sensitive genotype, LPOST
smiles,measurement,setting,value
"CS(=O)(=O)c1ccc(C(=O)C2C(=O)CCCC2=O)c([N+](=O)[O-])c1 [Mesotrione*CALLISTO, mesotrione]",Lutein % change from untreated control,[1]; [3],−6.4%
same,Zeaxanthin % change from untreated control,[1]; [3],−7.4%
same,Kernel carotenoids: Lutein,"[1]; 'Incredible' moderately sensitive genotype, EPOST, untreated 0.328",0.307
same,Kernel carotenoids: Zeaxanthin,"[1]; 'Incredible' moderately sensitive genotype, EPOST, untreated 0.448",0.415
same,Lutein % change from untreated control,[1]; [4],+4.6%
same,Zeaxanthin % change from untreated control,[1]; [4],+1.3%
same,Kernel carotenoids: Lutein,"[1]; 'Incredible' moderately sensitive genotype, LPOST, untreated 0.328",0.343
same,Kernel carotenoids: Zeaxanthin,"[1]; 'Incredible' moderately sensitive genotype, LPOST, untreated 0.448",0.454
same,Lutein % change from untreated control,[1]; [5],+7.8%
same,Zeaxanthin % change from untreated control,[1]; [5],+12.0%
same,Kernel carotenoids: Zeaxanthin,"[1]; 'Merit' sensitive genotype, EPOST, untreated 0.509",0.570
same,Kernel carotenoids: Lutein,[1]; [6],0.577
same,Lutein % change from untreated control,[1]; [6],+8.7%
same,Zeaxanthin % change from untreated control,[1]; [6],−3.7%
same,Kernel carotenoids: Zeaxanthin,"[1]; 'Merit' sensitive genotype, LPOST, untreated 0.509",0.409
same,"Fructose, percent increase",[2],18%
same,"Gamma-tocopherol, percent increase",[2],5%
same,"Glucose, percent increase",[2],19%
same,"Lutein, percent increase",[2],17%
same,"Maltose, percent increase",[2],15%
same,"Sucrose, percent increase",[2],−32%
same,"Total Sugars, percent increase",[2],−4%
same,"Zeaxanthin, percent increase",[2],1%
same,"antheraxanthin, percent increase",[2],14%
